Measurements published in patent publication US7674827B2, “Indanyl- and tetrahydronaphtyl-amino-thiourea compounds for combating animal pests” (BASF SE, priority 2005, dated 2010).

How the values were obtained:
Format in all cases: in vivo
[1] = system: Myzus persicae; assay: Green peach aphid (Myzus persicae) mortality test on dipped pepper plants; conditions: 120 h, pepper plant leaves dipped, aphid mortality determined after 5 days, read-out: mortality in comparison with untreated controls
Method: (§1) The active compounds were formulated • a. for testing the activity against Aphis gossypii, Myzus persicae, and Aphis fabae, as 50:50 acetone:water solutions amended with 100 ppm Kinetic® (surfactant), • b. for testing the activity against Spodoptera eridania as a 10.000 ppm solution in a mixture of 35% acetone and water, which was diluted with water, if needed.
(§2) After the experiments were completed, in each case the lowest concentration was determined at which the compound still caused an 75 to 100% inhibition or mortality in comparison with untreated controls (limit or minimal concentration).
B.2 Green Peach Aphid (Myzus persicae)
Pepper plants in the 2nd leaf-pair stage (variety ‘California Wonder’) are infested with approximately 40 laboratory-reared aphids by placing infested leaf sections on top of the test plants. The leaf sections are removed after 24 hr. The leaves of the intact plants are dipped into gradient solutions of the test compound. Aphid mortality on the treated plants, relative to mortality on check plants, is determined after 5 days.

[2] = system: Aphis gossypii; assay: Cotton aphid (Aphis gossypii) mortality test on dipped cotton plants; conditions: 120 h, cotton cotyledons dipped, aphid mortality determined after 5 days, read-out: mortality in comparison with untreated controls
Method: as §1, §2
B.1 Cotton Aphid (Aphis gossypii)
Cotton plants in the cotyledon stage (variety ‘Delta Pine’) are infested with approximately 100 laboratory-reared aphids by placing infested leaf sections on top of the test plants. The leaf sections are removed after 24 hr. The cotyledons of the intact plants are dipped into gradient solutions of the test compound. Aphid mortality on the treated plants, relative to mortality on check plants, is determined after 5 days.

[3] = system: Aphis fabae; assay: Bean aphid (Aphis fabae) mortality test on dipped nasturtium plants; conditions: foliar, 72 h, nasturtium foliage and stem dipped, aphid mortality determined after 3 days, read-out: mortality in comparison with untreated controls
Method: as §1, §2
B.3 Bean Aphid (Aphis fabae)
Nasturtium plants in the 1st leaf-pair stage (variety ‘Mixed Jewel’) are infested with approximately 25 laboratory-reared aphids by placing infested cut plants on top of the test plants. The cut plants are removed after 24 hr. The foliage and stem of the test plants are dipped into gradient solutions of the test compound. Aphid mortality is determined after 3 days.

Measured: mortality at 300 ppm

O=C(OCCNC(=S)NC1CCc2ccccc21)c1ccncc1 (racemic) [Example 13, Isonicotinic acid 2-(3-indan-1-yl-thioureido)-ethyl ester]
> 80%: all assays above

COCC(=O)OCCNC(=S)NC1CCc2ccccc21 (racemic) [Example 14, Methoxy-acetic acid 2-(3-indan-1-yl-thioureido)-ethyl ester]
> 80%: all assays above
